{
  "source": "patent US20210308211A1",
  "about": "“METHOD OF TREATING VIRAL INFECTIONS” (priority 2020, published 2021)",
  "system": "Balb/c mice",
  "assay": "31-day HDM-induced asthma model, airway response to methacholine (Flexivent)",
  "type": "in vivo, mouse",
  "settings": "for Crs / Ers / Rrs: per mouse",
  "procedure": "The aim of this study was to evaluate the effect of the P140 phosphopeptide administered systemically (intravenously) in a 31-day model of HDM-induced asthma in mice. The P140 phosphopeptide was solubilized in sterile water (Braun) and 10x concentrate sterile saline was added to adjust osmolarity to 300 mosm. Osmolarity was controlled with a micro osmometer (Löser, type 15) and validated (303 mosm). The P140 phosphopeptide was used in vivo at the dose of 4 mg/kg by intravenous (i.v.) routes. Control animals received equivalent volumes (2 ml/kg) of saline (Table 8).\nNine-week-old male Balb/c mice were sensitized by intranasal (i.n.) administration of HDM extract (Stallergenes): 1 μg in 25 μl saline on days 0, 1, 2, 3, 4, and 10 μg on days 14 and 21. Mice were challenged by i.n. administration of HDM (1 μg) and/or saline on days 28, 29 and 30. Mice were treated by i.v. injection (2 ml/kg) of P140 or solvent on day 25 (see FIG. 12).\nAirway response to Methacholine (Flexivent®). On day 31, airway responses to PBS then methacholine were assessed using a forced oscillation technique (Flexivent®, SCIREQ, Montreal, Canada) as described (Daubeuf et al, Bioprotocol, 645, 2013). Mice were anesthetized with an intraperitoneal injection of xylasine (Rompun®; 1 mg/kg), followed fifteen minutes later by an intraperitoneal injection of pentobarbital sodium (3.64 mg/Kg). The trachea was exposed and an 18-gauge metal needle was inserted into the trachea. Airways were connected to a computer-controlled small animal ventilator, and quasi-sinusoidally ventilated with a tidal volume of 10 ml/Kg at a frequency of 150 breaths/min and a positive end-expiratory pressure of 2 cm H2O to achieve a mean respiratory volume close to that of spontaneous breathing. After baseline measurement, each mouse was challenged for 10 sec with an aerosol of PBS generated with an in-line nebulizer and administered directly through the ventilator. Then, aerosolized methacholine (MCh) at 50 mg/ml was administered for 10 sec. The effect of methacholine was calculated as the peak response, i.e. the mean of the three maximal values integrated for calculation of airway resistance (R, cm H20·s·mL^−1), elastance (E, cm H20·mL^−1) and compliance (C, mL·cm H20^−1).\nAll mice were sensitized to HDM on days 0, 1, 2, 3, 4, 14, 21, and challenged either with saline ([…]) or HDM (challenge with allergen). Results are presented as means±SEM. Differences between groups were tested for statistical significance using Student's t test for inflammatory cells and a two-way ANOVA followed by Bonferroni post-test for airway responses.",
  "key": {"[1]": {"settings": "chronic asthma, methacholine 50 mg/ml, P140 i.v. 4 mg/kg day 25, p<0.05"}, "[2]": {"settings": "HDM + P140 (HDM-challenged), first unlabelled sub-column (presumably PBS/baseline)"}, "[3]": {"settings": "HDM + P140 (HDM-challenged), second unlabelled sub-column (presumably MCh 50 mg/mL)"}, "[4]": {"settings": "P140, saline-challenged (chronic asthma), first unlabelled sub-column (presumably PBS/baseline)"}, "[5]": {"settings": "P140, saline-challenged (chronic asthma), second unlabelled sub-column (presumably MCh 50 mg/mL)"}},
  "note": "Several values for one entry are separate records, joined by “and”; a condition that tells them apart may be missing. Equal entries are not always repeated. Non-standard residues stand in square brackets, D forms with d. Residues, ends and D or L forms follow the SMILES beside them. pS = N[C@@H](COP(=O)(O)O)C(=O)O",
  "data": [
    {"molecule": "CC[C@H](C)[C@H](NC(=O)[C@H](Cc1ccccc1)NC(=O)[C@H](C)NC(=O)[C@H](Cc1ccc(O)cc1)NC(=O)CNC(=O)[C@H](CCCNC(=N)N)NC(=O)[C@@H]1CCCN1C(=O)[C@H](CCCCN)NC(=O)CNC(=O)[C@H](COP(=O)(O)O)NC(=O)[C@H](CCCNC(=N)N)NC(=O)[C@H](CCCCN)NC(=O)[C@H](CO)NC(=O)[C@H](Cc1ccc(O)cc1)NC(=O)[C@@H](NC(=O)[C@H](CCSC)NC(=O)[C@H](Cc1c[nH]cn1)NC(=O)[C@@H](NC(=O)[C@@H](N)CCCNC(=N)N)[C@@H](C)CC)C(C)C)C(=O)N[C@@H](CCC(=O)O)C(=O)N[C@@H](Cc1ccc(O)cc1)C(=O)O", "note": "[Compound P140] (H-RIHMVYSKR[pS]GKPRGYAFIEY-OH; N-terminus and C-terminus assumed)", "values": [
      {"measurement": "Airway resistance, elastance or compliance (in words)", "setting": "allergen (HDM)-challenged mice, compared to the solvent group", "value": "no effect"},
      {"measurement": "Airway resistance, change vs solvent group", "setting": "chronic asthma, methacholine 50 mg/ml, P140 i.v. 4 mg/kg day 25, non-significant (n=5)", "value": "−42", "unit": "%"},
      {"measurement": "Airway compliance, change vs solvent group", "setting": "[1]", "value": "+115%"},
      {"measurement": "Elastance, change vs solvent group", "setting": "[1]", "value": "−65", "unit": "%"},
      {"measurement": "Crs", "setting": "[2]", "value": "0.0554 mL/cmH2O and 0.0514 mL/cmH2O and 0.0528 mL/cmH2O and 0.0566 mL/cmH2O and 0.0492 mL/cmH2O and 0.0458 mL/cmH2O and 0.0552 mL/cmH2O and 0.0589 mL/cmH2O"},
      {"measurement": "Ers", "setting": "[2]", "value": "18.0582 cmH2O/mL and 19.4433 cmH2O/mL and 18.9515 cmH2O/mL and 17.6781 cmH2O/mL and 20.3326 cmH2O/mL and 21.8367 cmH2O/mL and 18.1106 cmH2O/mL and 16.9723 cmH2O/mL"},
      {"measurement": "Rrs", "setting": "[2]", "value": "0.6405 cmH2O.s/mL and 0.6092 cmH2O.s/mL and 0.7972 cmH2O.s/mL and 0.5185 cmH2O.s/mL and 0.6804 cmH2O.s/mL and 0.6365 cmH2O.s/mL and 0.4744 cmH2O.s/mL and 0.5456 cmH2O.s/mL"},
      {"measurement": "Crs", "setting": "[3]", "value": "0.0146 mL/cmH2O and 0.0075 mL/cmH2O and 0.0062 mL/cmH2O and 0.0065 mL/cmH2O and 0.0101 mL/cmH2O and 0.0060 mL/cmH2O and 0.0138 mL/cmH2O and 0.0081 mL/cmH2O"},
      {"measurement": "Ers", "setting": "[3]", "value": "79.8018 cmH2O/mL and 148.4985 cmH2O/mL and 188.1151 cmH2O/mL and 219.9720 cmH2O/mL and 125.7688 cmH2O/mL and 173.4582 cmH2O/mL and 72.6033 cmH2O/mL and 131.8035 cmH2O/mL"},
      {"measurement": "Rrs", "setting": "[3]", "value": "5.6421 cmH2O.s/mL and 10.3886 cmH2O.s/mL and 11.9654 cmH2O.s/mL and 10.5419 cmH2O.s/mL and 8.8810 cmH2O.s/mL and 13.0087 cmH2O.s/mL and 7.0705 cmH2O.s/mL and 9.7688 cmH2O.s/mL"},
      {"measurement": "Rrs", "setting": "P140, saline-challenged (chronic asthma)", "value": "0.5590 cmH2O.s/mL and 0.8945 cmH2O.s/mL and 0.5926 cmH2O.s/mL and 0.8074 cmH2O.s/mL and 0.4418 cmH2O.s/mL"},
      {"measurement": "Crs", "setting": "[4]", "value": "0.0545 mL/cmH2O and 0.0498 mL/cmH2O and 0.0569 mL/cmH2O and 0.0541 mL/cmH2O and 0.0650 mL/cmH2O"},
      {"measurement": "Ers", "setting": "[4]", "value": "18.3671 cmH2O/mL and 20.0811 cmH2O/mL and 17.5777 cmH2O/mL and 18.4893 cmH2O/mL and 15.3975 cmH2O/mL"},
      {"measurement": "Crs", "setting": "[5]", "value": "0.0304 mL/cmH2O and 0.0132 mL/cmH2O and 0.0380 mL/cmH2O and 0.0238 mL/cmH2O and 0.0370 mL/cmH2O"},
      {"measurement": "Ers", "setting": "[5]", "value": "33.3720 cmH2O/mL and 84.9688 cmH2O/mL and 26.3200 cmH2O/mL and 42.4174 cmH2O/mL and 28.6047 cmH2O/mL"},
      {"measurement": "Rrs", "setting": "[5]", "value": "4.1067 cmH2O.s/mL and 9.4002 cmH2O.s/mL and 2.2229 cmH2O.s/mL and 4.0926 cmH2O.s/mL and 2.1844 cmH2O.s/mL"},
      {"measurement": "Baseline airway resistance, elastance and compliance after PBS inhalation (in words)", "setting": "saline-challenged mice, i.v. 4 mg/kg day 25, compared to solvent-treated mice", "value": "no effect"}
    ]}
  ]
}
